Holding throughout (assay type): biochemical
In one experiment the target is T1, human Yes1 enzyme (Homo sapiens, UniProt P07947).
T1 construct: made in house
The experiment can be described thus: Yes1 enzyme inhibitory activity (time-resolved fluorometry, biotinylated peptide phosphorylation). To be noted: read-out: YES_IC50. An outline of the steps: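 Inhibition was expressed against a compound-free control to give IC50, using TR-FRET read-out (Eu-cryptate anti-pTyr antibody, streptavidin-XL665).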

In the next experiment the target is T2, human Src enzyme (Homo sapiens, UniProt P12931).
T2 construct: purchased Carna Biosciences, Inc. 08-173
The experiment can be described thus: Src enzyme inhibitory activity (time-resolved fluorometry, biotinylated peptide phosphorylation). To be noted: read-out: SRC_IC50. The method in brief:
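Compounds were tested for blocking tyrosine phosphorylation of a biotinylated peptide substrate by recombinant human Src. Phosphorylated product was quantified by time-resolved fluorometry using europium cryptate and XL665 conjugates, and IC50 was calculated against the compound-free control.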

For the next experiment, the target named is T3, human Lck enzyme (Homo sapiens, UniProt P06239).
T3 construct: purchased Carna Biosciences, Inc. 08-170
The experiment can be described thus: Lck enzyme inhibitory activity (time-resolved fluorometry, biotinylated peptide phosphorylation). The settings on record: read-out: LCK_IC50. The method in brief:
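Readout pairs a europium cryptate-labelled anti-phosphotyrosine antibody with XL665-streptavidin, measured by time-resolved fluorescence. IC50 derived from percent inhibition against untreated controls.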

Where [1] appears, read: biotinylated peptide phosphorylation.

This passage reports IC50 results from US10479780B2, “Aminopyrazole derivatives” (Chugai Seiyaku Kabushiki Kaisha, priority 2015, dated 2019).

Molecules are shown by their SMILES. pIC50: −log10 of the molar value. Where two headings read alike, the source gives them in different places.

T2 sequence (P12931 whole entry): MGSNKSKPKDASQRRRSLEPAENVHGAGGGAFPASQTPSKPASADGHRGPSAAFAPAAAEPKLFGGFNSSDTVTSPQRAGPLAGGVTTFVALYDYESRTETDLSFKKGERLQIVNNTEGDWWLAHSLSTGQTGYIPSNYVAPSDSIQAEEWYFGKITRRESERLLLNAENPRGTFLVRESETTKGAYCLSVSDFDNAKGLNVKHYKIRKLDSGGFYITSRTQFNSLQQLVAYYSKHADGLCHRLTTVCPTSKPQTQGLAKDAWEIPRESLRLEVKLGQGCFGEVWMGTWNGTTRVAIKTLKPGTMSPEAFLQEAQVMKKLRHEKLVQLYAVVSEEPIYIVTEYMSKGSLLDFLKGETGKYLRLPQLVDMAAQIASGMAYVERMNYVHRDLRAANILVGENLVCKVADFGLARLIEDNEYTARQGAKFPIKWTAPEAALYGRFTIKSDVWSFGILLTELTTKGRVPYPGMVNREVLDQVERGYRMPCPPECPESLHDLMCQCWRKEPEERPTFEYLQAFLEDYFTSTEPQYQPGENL
T3 sequence (P06239 whole entry): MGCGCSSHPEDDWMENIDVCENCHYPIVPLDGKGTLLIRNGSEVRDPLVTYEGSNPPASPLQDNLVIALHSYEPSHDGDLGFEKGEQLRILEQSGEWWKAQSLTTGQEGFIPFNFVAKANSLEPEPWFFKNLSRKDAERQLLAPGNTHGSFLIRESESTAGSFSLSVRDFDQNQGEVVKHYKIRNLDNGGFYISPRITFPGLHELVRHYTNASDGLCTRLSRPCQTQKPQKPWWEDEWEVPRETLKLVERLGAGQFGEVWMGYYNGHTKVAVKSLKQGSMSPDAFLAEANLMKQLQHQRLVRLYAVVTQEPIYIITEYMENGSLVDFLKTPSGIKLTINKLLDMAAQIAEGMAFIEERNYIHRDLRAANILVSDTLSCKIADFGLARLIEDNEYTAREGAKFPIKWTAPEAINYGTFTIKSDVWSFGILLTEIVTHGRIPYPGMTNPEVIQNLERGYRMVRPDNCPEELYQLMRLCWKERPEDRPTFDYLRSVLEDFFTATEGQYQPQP
T1 sequence (P07947 whole entry): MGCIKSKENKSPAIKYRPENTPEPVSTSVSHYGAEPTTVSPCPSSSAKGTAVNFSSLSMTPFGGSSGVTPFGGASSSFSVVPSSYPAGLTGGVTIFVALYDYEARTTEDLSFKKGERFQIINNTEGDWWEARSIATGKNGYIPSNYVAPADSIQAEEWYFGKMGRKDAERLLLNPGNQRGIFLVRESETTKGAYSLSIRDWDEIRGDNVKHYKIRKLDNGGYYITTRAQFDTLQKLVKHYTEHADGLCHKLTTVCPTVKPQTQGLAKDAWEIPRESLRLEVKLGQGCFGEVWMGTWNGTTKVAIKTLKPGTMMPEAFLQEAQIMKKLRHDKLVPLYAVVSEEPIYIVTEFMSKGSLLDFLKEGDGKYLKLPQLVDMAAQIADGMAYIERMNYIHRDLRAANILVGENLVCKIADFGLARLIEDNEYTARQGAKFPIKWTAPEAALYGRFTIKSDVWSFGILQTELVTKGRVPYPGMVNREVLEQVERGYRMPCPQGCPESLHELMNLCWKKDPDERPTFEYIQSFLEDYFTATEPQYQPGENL

`Cc1cc2cc(C(=O)c3cnn(-c4cnc(Oc5ccc(F)cc5)cc4C)c3N)[nH]c2cc1NS(=O)(=O)CCCF` [Example 4-2-076, N-[2-[5-amino-1-[6-(4-fluorophenoxy)-4-methylpyridin-3-yl]pyrazole-4-carbonyl]-5-methyl-1H-indol-6-yl]-3-fluoropropane-1-sulfonamide]: the pIC50 on human Yes1 enzyme (setting [1]) was 7.74; on human Src enzyme (setting [1]) it was 6.89; at human Lck enzyme (setting [1]), 7.21.

For the compound `Cc1cc2cc(C(=O)c3cnn(-c4cnc(Oc5ccccc5F)cc4C)c3N)[nH]c2cc1NS(=O)(=O)CC(=O)N1CCOCC1` [Example 4-15-001, N-(2-(5-amino-1-(6-(2-fluorophenoxy)-4-methylpyridin-3-yl)-1H-pyrazole-4-carbonyl)-5-methyl-1H-indol-6-yl)-2-morpholino-2-oxoethanesulfonamide], the pIC50 on human Yes1 enzyme (setting [1]) was 8.96; on human Src enzyme (setting [1]), 7.74; at human Lck enzyme (setting [1]) it was 8.00.

`Cc1cc(Oc2ccccc2F)ncc1-n1ncc(C(=O)c2cc3cc(NS(C)(=O)=O)c(Cl)cc3[nH]2)c1N` [Example 4-2-096, N-[2-[5-amino-1-[6-(2-fluorophenoxy)-4-methylpyridin-3-yl]pyrazole-4-carbonyl]-6-chloro-1H-indol-5-yl]methanesulfonamide]: the pIC50 was 9.42 at human Yes1 enzyme (setting [1]), 8.02 on human Src enzyme (setting [1]) and 8.59 at human Lck enzyme (setting [1]).

Consider `Cc1cc(Oc2c(F)cccc2F)ncc1-n1ncc(C(=O)c2cc3cc(OCC(F)F)c(NS(=O)(=O)c4cccc(F)n4)cc3[nH]2)c1N` [Example 5-1-570, N-[2-[5-amino-1-[6-(2,6-difluorophenoxy)-4-methylpyridin-3-yl]pyrazole-4-carbonyl]-5-(2,2-difluoroethoxy)-1H-indol-6-yl]-6-fluoropyridine-2-sulfonamide], for which the pIC50 at human Yes1 enzyme (setting [1]) was 8.68; at human Src enzyme (setting [1]), 6.39; on human Lck enzyme (setting [1]) it was 8.02.

With `COc1cc2cc(C(=O)c3cnn(-c4c(C)cc(Oc5ccccc5F)cc4F)c3N)[nH]c2cc1N1CCCS1(=O)=O` [Example 4-2-120, [5-amino-1-[2-fluoro-4-(2-fluorophenoxy)-6-methylphenyl]pyrazol-4-yl]-[6-(1,1-dioxo-1,2-thiazolidin-2-yl)-5-methoxy-1H-indol-2-yl]methanone], the pIC50 at human Yes1 enzyme (setting [1]) was 9.00; at human Src enzyme (setting [1]), 7.55; on human Lck enzyme (setting [1]), 8.40.

Consider `Cc1cc(Oc2ccccc2F)ncc1-n1ncc(C(=O)c2cc3cc(F)c(NS(=O)(=O)CCCF)cc3[nH]2)c1N` [Example 4-2-020, N-[2-[5-amino-1-[6-(2-fluorophenoxy)-4-methylpyridin-3-yl]pyrazole-4-carbonyl]-5-fluoro-1H-indol-6-yl]-3-fluoropropane-1-sulfonamide], for which the figures for the pIC50 on human Yes1 enzyme (setting [1]), at human Src enzyme (setting [1]) and on human Lck enzyme (setting [1]) were 8.70, 7.23 and 7.96, respectively.

Take `Cc1cc(Oc2ccccc2F)ccc1-n1ncc(C(=O)c2cc3cc(OCC(F)F)c(NS(=O)(=O)c4cc(F)cc(F)c4)cc3[nH]2)c1N` [Example 5-1-415, N-[2-[5-amino-1-[4-(2-fluorophenoxy)-2-methylphenyl]pyrazole-4-carbonyl]-5-(2,2-difluoroethoxy)-1H-indol-6-yl]-3,5-difluorobenzenesulfonamide]: the pIC50 is 8.23 at human Yes1 enzyme (setting [1]), 6.55 on human Src enzyme (setting [1]) and 6.96 on human Lck enzyme (setting [1]).

As for `Cc1cc(Oc2ccccc2F)ccc1-n1ncc(C(=O)c2cc3cc(OC4CCN(C(C)C)CC4)c(N4CCC(N5CCOCC5)CC4)cc3[nH]2)c1N` [Example 5-1-194, [5-amino-1-[4-(2-fluorophenoxy)-2-methylphenyl]pyrazol-4-yl]-[6-(4-morpholin-4-ylpiperidin-1-yl)-5-(1-propan-2-ylpiperidin-4-yl)oxy-1H-indol-2-yl]methanone], the pIC50 at human Yes1 enzyme is 9.46; on human Src enzyme, 8.82; on human Lck enzyme it was 8.92.

For the compound `Cc1cc(Oc2ccccc2F)ccc1-n1ncc(C(=O)c2cc3cc(F)c(N4CC(C)(C)NS4(=O)=O)cc3[nH]2)c1N` [Example 5-1-302, (5-amino-1-(4-(2-fluorophenoxy)-2-methylphenyl)-1H-pyrazol-4-yl)(6-(4,4-dimethyl-1,1-dioxido-1,2,5-thiadiazolidin-2-yl)-5-fluoro-1H-indol-2-yl)methanone], the pIC50 at human Yes1 enzyme is 8.72; on human Src enzyme, 7.30; at human Lck enzyme, 7.66.

For `Cc1cc(Oc2c(F)cccc2F)ncc1-n1ncc(C(=O)c2cc3cc(F)c(N4C(=O)[C@@H]5C[C@@H](O)CN5C4=O)cc3[nH]2)c1N` [Example 5-1-433, (6R,7aS)-2-[2-[5-amino-1-[6-(2,6-difluorophenoxy)-4-methylpyridin-3-yl]pyrazole-4-carbonyl]-5-fluoro-1H-indol-6-yl]-6-hydroxy-5,6,7,7a-tetrahydropyrrolo[1,2-c]imidazole-1,3-dione], the pIC50 is 8.92 on human Yes1 enzyme (setting [1]), 7.23 on human Src enzyme (setting [1]) and 8.32 at human Lck enzyme (setting [1]).

Regarding `CCOc1cc2cc(C(=O)c3cnn(-c4ccc(Oc5ccccc5F)cc4C)c3N)[nH]c2cc1C1CCN(S(C)(=O)=O)CC1` [Example 5-1-073, [5-amino-1-[4-(2-fluorophenoxy)-2-methylphenyl]pyrazol-4-yl]-[5-ethoxy-6-(1-methylsulfonylpiperidin-4-yl)-1H-indol-2-yl] methanone], the results for the pIC50 at human Yes1 enzyme, at human Src enzyme and on human Lck enzyme were 8.01, 7.38 and 7.49, respectively.

Regarding `Cc1cc2cc(C(=O)c3cnn(-c4ccc(Oc5ccccc5F)cc4C)c3N)[nH]c2cc1N1C(=O)N[C@@H](Cc2ccccc2)C1=O` [Example 5-1-457, (5S)-3-[2-[5-amino-1-[4-(2-fluorophenoxy)-2-methylphenyl]pyrazole-4-carbonyl]-5-methyl-1H-indol-6-yl]-5-benzylimidazolidine-2,4-dione], the results for the pIC50 on human Yes1 enzyme (setting [1]), on human Src enzyme (setting [1]) and on human Lck enzyme (setting [1]) were 8.64, 7.11 and 7.72, respectively.

For `Cc1cc(Oc2c(F)cccc2F)ncc1-n1ncc(C(=O)c2cc3cc(F)c(N4C(=O)NC5(COC5)C4=O)cc3[nH]2)c1N` [Example 5-1-345, 7-[2-[5-amino-1-[6-(2,6-difluorophenoxy)-4-methylpyridin-3-yl]pyrazole-4-carbonyl]-5-fluoro-1H-indol-6-yl]-2-oxa-5,7-diazaspiro[3.4] octane-6,8-dione], the pIC50 on human Yes1 enzyme is 8.80; on human Src enzyme it was 7.33; at human Lck enzyme, 8.49.

In the case of `Cc1cc(Oc2ccccc2F)ccc1-n1ncc(C(=O)c2cc3cc(OCC(F)F)c(NS(=O)(=O)N4CCOCC4)cc3[nH]2)c1N` [Example 4-22-005, N-[2-[5-amino-1-[4-(2-fluorophenoxy)-2-methylphenyl]pyrazole-4-carbonyl]-5-(2,2-difluoroethoxy)-1H-indol-6-yl]morpholine-4-sulfonamide], the pIC50 on human Yes1 enzyme (setting [1]) is 8.74; at human Src enzyme (setting [1]) it was 7.36; at human Lck enzyme (setting [1]), 7.70.

Take `Cc1cc2cc(C(=O)c3cnn(-c4cnc(Oc5ccccc5F)cc4C)c3N)[nH]c2cc1NS(=O)(=O)c1cc(F)cc(F)c1` [Example 5-1-460, N-[2-[5-amino-1-[6-(2-fluorophenoxy)-4-methylpyridin-3-yl]pyrazole-4-carbonyl]-5-methyl-1H-indol-6-yl]-3,5-difluorobenzenesulfonamide]: the pIC50 at human Yes1 enzyme (setting [1]) was 8.35; at human Src enzyme (setting [1]) it was 6.11; on human Lck enzyme (setting [1]), 6.70.

Regarding `Cc1cc(Oc2c(F)cccc2F)ncc1-n1ncc(C(=O)c2cc3cc(OCC(F)F)c(NC4CCN(S(C)(=O)=O)CC4)cc3[nH]2)c1N` [Example 4-23-021, [5-amino-1-[6-(2,6-difluorophenoxy)-4-methylpyridin-3-yl]pyrazol-4-yl]-[5-(2,2-difluoroethoxy)-6-[(1-methylsulfonylpiperidin-4-yl)amino]-1H-indol-2-yl]methanone], the pIC50 is 8.44 on human Yes1 enzyme (setting [1]), 7.68 at human Src enzyme (setting [1]) and 7.96 on human Lck enzyme (setting [1]).

As to `Cc1cc(Oc2ccccc2F)ccc1-n1ncc(C(=O)c2cc3cc(OC4CCN(C(C)C)CC4)c(Cl)cc3[nH]2)c1N` [Example 5-1-197, [5-amino-1-[4-(2-fluorophenoxy)-2-methylphenyl]pyrazol-4-yl]-[6-chloro-5-(1-propan-2-ylpiperidin-4-yl)oxy-1H-indol-2-yl] methanone], the pIC50 on human Yes1 enzyme was 9.06; at human Src enzyme it was 8.11; on human Lck enzyme it was 8.08.

In the case of `Cc1cc(Oc2ccccc2F)ncc1-n1ncc(C(=O)c2cc3cc(OC(F)F)c(C4CCN(S(=O)(=O)C5CC5)CC4)cc3[nH]2)c1N` [Example 4-17-010, [5-amino-1-[6-(2-fluorophenoxy)-4-methylpyridin-3-yl]pyrazol-4-yl]-[6-(1-cyclopropylsulfonylpiperidin-4-yl)-5-(difluoromethoxy)-1H-indol-2-yl]methanone], the pIC50 was 8.70 on human Yes1 enzyme (setting [1]), 7.00 at human Src enzyme (setting [1]) and 7.35 at human Lck enzyme (setting [1]).

Regarding `Cc1cc(Oc2ccccc2F)cc(F)c1-n1ncc(C(=O)c2cc3cc(Cl)c(NS(C)(=O)=O)cc3[nH]2)c1N` [Example 4-2-079, N-[2-[5-amino-1-[2-fluoro-4-(2-fluorophenoxy)-6-methylphenyl]pyrazole-4-carbonyl]-5-chloro-1H-indol-6-yl]methanesulfonamide], the pIC50 on human Yes1 enzyme (setting [1]) is 8.59; at human Src enzyme (setting [1]), 7.18; on human Lck enzyme (setting [1]), 7.62.
